Patent publication US20230416330A1, “Optimized GIP Peptide Analogues” (Antag Therapeutics ApS, priority 2019, published 2023)
Starred links: 1 amine or outer side, 2 acyl side, 3 side chain; linkers in the order of their positions; H or OH if unused. Non-standard residues stand in square brackets, D forms with d. Residues, ends and D or L forms follow the SMILES beside them. Groups on a side chain read outwards from the residue. *: point of attachment. C18 diacid = O=C(O)CCCCCCCCCCCCCCCCC(=O)*; C16 diacid = O=C(O)CCCCCCCCCCCCCCC(=O)*; γGlu = O=C(O)[C@H](CCC(=O)[*:2])N[*:1]; Adipoyl = O=C(CCCCC(=O)[*:2])[*:1]; Glutaryl = O=C(CCCC(=O)[*:2])[*:1]; AEEA = NCCOCCOCC(=O)O; Aib = CC(C)(N)C(=O)O

Experiments:
human GIP receptor = biological target: T1, human GIP receptor (Homo sapiens, UniProt P48546); assay: cAMP assay Alternative 2 (Gaddum assay), antagonist potency pKb; type: cell-based; conditions: Table 2C; Gaddum equation, single antagonist dose; HEK-293 hGIPR; read-out: nM (Kb)
T1 construct: host or cells: HEK-293 cells, transient transfection (Lipofectamine 2000), cDNA in pCMV-Script vector
T1 sequence (P48546 22-466): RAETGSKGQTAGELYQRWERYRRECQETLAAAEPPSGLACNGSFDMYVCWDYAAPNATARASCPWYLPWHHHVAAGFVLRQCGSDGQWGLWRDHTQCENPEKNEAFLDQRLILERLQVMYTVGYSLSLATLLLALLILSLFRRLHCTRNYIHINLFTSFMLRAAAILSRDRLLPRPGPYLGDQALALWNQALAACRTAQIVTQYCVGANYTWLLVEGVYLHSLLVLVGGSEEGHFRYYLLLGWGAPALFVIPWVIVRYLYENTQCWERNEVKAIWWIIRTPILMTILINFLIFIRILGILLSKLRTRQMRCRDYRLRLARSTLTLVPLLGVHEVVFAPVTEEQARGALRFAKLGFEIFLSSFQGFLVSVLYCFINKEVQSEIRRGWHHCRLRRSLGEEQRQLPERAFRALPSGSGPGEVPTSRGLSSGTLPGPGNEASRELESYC
Protocol: HEK293 cells were cultured in 10% CO2 and 37° C. in Dulbecco's modified Eagle's medium supplemented with 10% fetal bovine serum, 2 mM glutamine, 180 units/ml penicillin, and 45 µg/ml streptomycin. Transient transfection with hGIPR for the CisBio assay from Table 2C was performed by using Lipofectamine 2000.
Antagonist potency (pKb) was estimated in a functional setting. The estimated pKb values were calculated from the shifts of the agonist-concentration-response curves in the presence of a single dose of GIP peptide antagonists using the Gaddum equation: pKb=log(DR-1)-log(B), where DR (EC50′/EC50) is the dose ratio calculated from EC50 of GIP1-42 obtained in the presence and absence (EC50) of antagonist, and B is the antagonist concentration used.
The in vitro functional assessment of compounds towards human GIP receptor was determined in HEK-293 cells transiently expressing the receptor. On the day of the assay, cells were resuspended in HBSS buffer (Gibco, 14025-50) supplemented with […] (Gibco, 15630-106), 0.1% Pluronic F-68 (Gibco, 24040-032) and 0.1% casein (Sigma, C4765), and plated in 384-well plates at a density of 3500 cells/well. The GIP peptide analogues of the present disclosure were diluted in HBSS buffer supplemented with 20 mM HEPES, 0.1% pluronic, 0.1% casein and 500 uM IBMX. […] Increasing dose of agonist (GIP1-42) was subsequently added to cells and incubated for additionally 30 min at 37° C. The intracellular cAMP was quantitatively determined using the CisBio cAMP Dynamic 2 HTRF Assay Kit. The assay is based on a competition between native cAMP produced by cells and cAMP labeled with the dye d2 for binding to a cryptate labeled antibody. The specific signal (i.e. energy transfer signal) is inversely proportional to the concentration of cAMP in the sample.
The cAMP-d2 conjugate and the antibody anti-cAMP-Cryptate, both diluted in lysis buffer provided in the kit, were added to the cells according to the manufacturer's protocol. The resulting competitive assay was incubated for 60 minutes at room temperature, and the signal was detected by using a PerkinElmer Envision® instrument with excitation at 320 nm and emission at 665 nm and 620 nm. The HTRF ratio (emission at 665 nm/620 nm*10,000) is inversely proportional to the amount of cAMP present and is converted to nM cAMP per well using a cAMP standard curve.

[1] = Physical stability: fibril formation in Thioflavin T (ThT) assay with agitation; type: physicochemical; conditions: 25° C., agitation
How it was run: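 Read-out is continuous ThT fluorescence at 486 nm, with lag time taken where signal reaches 10% between pre- and post-transition baselines. Filtered samples (1, 5, 7.5 or 15 mg/ml; pH 7.4 phosphate buffer or NaOH-adjusted water) were stressed at 25° C. by orbital rotation at 300 rpm with one silica bead per well.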

[2] = Solubility by visual inspection of peptide solutions; type: physicochemical
How it was run: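 Solubility scored by eye: clear, colorless appearance after gentle mixing. Samples prepared at 1, 5, 7.5 or 15 mg/ml in either pH 7.4 water (NaOH-adjusted) or 50 mM sodium phosphate buffer, pH 7.4.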

Compound | Kb (human GIP receptor) | Avr lag time (h) ([1]; 7.5 mg/ml, Na, MilliQ (8)) | Avr lag time (h) ([1]; 15 mg/ml, Na, MilliQ (8)) | Visual appearance ([2]; 7.5 mg/ml, Na, MilliQ (8)) | Visual appearance ([2]; 15 mg/ml, Na, MilliQ (8)) | Avr lag time (h) ([1]; 1 mg/ml, TFA, Phosphate (7.4)) | Visual appearance ([2]; 1 mg/ml, TFA, Phosphate (7.4))
CC[C@H](C)[C@H](NC(=O)[C@H](CCCCN)NC(=O)[C@H](CCC(=O)O)NC(=O)[C@H](CC(C)C)NC(=O)C(C)(C)NC(=O)[C@@H](NC(=O)[C@H](CO)NC(=O)[C@H](Cc1ccc(O)cc1)NC(=O)[C@H](CCC(=O)O)NC(=O)[C@H](CO)NC(=O)[C@@H](NC(=O)[C@H](Cc1ccccc1)NC(=O)[C@@H](NC(=O)CNC(=O)[C@@H](N)CCC(=O)O)[C@@H](C)O)[C@@H](C)CC)[C@@H](C)CC)C(=O)N[C@@H](CCCCNC(=O)CC[C@H](NC(=O)CCCCCCCCCCCCCCC(=O)O)C(=O)O)C(=O)N[C@@H](CCC(N)=O)C(=O)N[C@@H](CCC(N)=O)C(=O)N[C@@H](CCC(=O)O)C(=O)N[C@@H](Cc1ccccc1)C(=O)N[C@H](C(=O)N[C@@H](CCC(=O)O)C(=O)N[C@@H](Cc1c[nH]c2ccccc12)C(=O)N[C@@H](CC(C)C)C(=O)N[C@@H](CC(C)C)C(=O)N[C@@H](C)C(=O)N[C@@H](CCC(N)=O)C(=O)N[C@@H](CCCCN)C(=O)N1CCC[C@H]1C(=O)N[C@@H](CO)C(=O)N[C@@H](CO)C(=O)NCC(=O)N[C@@H](C)C(=O)N1CCC[C@H]1C(=O)N1CCC[C@H]1C(=O)N1CCC[C@H]1C(=O)N[C@@H](CO)C(=O)O)C(C)C [AT721] (H-EGTFISEYSI[Aib]LEKIK([γGlu-C16 diacid])QQEFVEWLLAQKPSSGAPPPS-OH; N-terminus assumed) | 0.31 nM | fnd (Fnd = fibrils not detected within experiment time (96 hours) with agitation.) | fnd (Fnd = fibrils not detected within experiment time (96 hours) with agitation.) | Clear | Clear |  | 
CC[C@H](C)[C@H](NC(=O)[C@H](CCCCN)NC(=O)[C@H](CCC(=O)O)NC(=O)[C@H](CC(C)C)NC(=O)C(C)(C)NC(=O)[C@@H](NC(=O)[C@H](CO)NC(=O)[C@H](Cc1ccc(O)cc1)NC(=O)[C@H](CCC(=O)O)NC(=O)[C@H](CO)NC(=O)[C@@H](NC(=O)[C@H](Cc1ccccc1)NC(=O)[C@@H](NC(=O)CNC(=O)CCCC(=O)O)[C@@H](C)O)[C@@H](C)CC)[C@@H](C)CC)C(=O)N[C@@H](CCCCNC(=O)COCCOCCNC(=O)COCCOCCNC(=O)CC[C@H](NC(=O)CCCCCCCCCCCCCCCCC(=O)O)C(=O)O)C(=O)N[C@@H](CCC(N)=O)C(=O)N[C@@H](CCC(N)=O)C(=O)N[C@@H](CCC(=O)O)C(=O)N[C@@H](Cc1ccccc1)C(=O)N[C@H](C(=O)N[C@@H](CCC(=O)O)C(=O)N[C@@H](Cc1c[nH]c2ccccc12)C(=O)N[C@@H](CC(C)C)C(=O)N[C@@H](CC(C)C)C(=O)N[C@@H](C)C(=O)N[C@@H](CCC(N)=O)C(=O)N[C@@H](CCCCN)C(=O)N1CCC[C@H]1C(=O)N[C@@H](CO)C(=O)N[C@@H](CO)C(=O)NCC(=O)N[C@@H](C)C(=O)N1CCC[C@H]1C(=O)N1CCC[C@H]1C(=O)N1CCC[C@H]1C(=O)N[C@@H](CO)C(=O)O)C(C)C [AT705] (Glutaryl-GTFISEYSI[Aib]LEKIK([AEEA-AEEA-γGlu-C18 diacid])QQEFVEWLLAQKPSSGAPPPS-OH) | 0.23 nM |  |  |  |  | fnd (Fnd = fibrils not detected within experiment time (96 hours) with agitation.) | Clear
CC[C@H](C)[C@H](NC(=O)[C@H](CO)NC(=O)[C@H](Cc1ccc(O)cc1)NC(=O)[C@H](CCC(=O)O)NC(=O)[C@H](CO)NC(=O)[C@@H](NC(=O)[C@H](Cc1ccccc1)NC(=O)[C@@H](NC(=O)CNC(=O)CCCC(=O)O)[C@@H](C)O)[C@@H](C)CC)C(=O)N[C@@H](C)C(=O)N[C@@H](CC(C)C)C(=O)N[C@@H](CCC(=O)O)C(=O)N[C@@H](CCCCN)C(=O)N[C@H](C(=O)N[C@@H](CCCCNC(=O)COCCOCCNC(=O)COCCOCCNC(=O)CC[C@H](NC(=O)CCCCCCCCCCCCCCCCC(=O)O)C(=O)O)C(=O)N[C@@H](CCC(N)=O)C(=O)N[C@@H](CCC(N)=O)C(=O)N[C@@H](CCC(=O)O)C(=O)N[C@@H](Cc1ccccc1)C(=O)N[C@H](C(=O)N[C@@H](CCC(=O)O)C(=O)N[C@@H](Cc1c[nH]c2ccccc12)C(=O)N[C@@H](CC(C)C)C(=O)N[C@@H](CC(C)C)C(=O)N[C@@H](C)C(=O)N[C@@H](CCC(N)=O)C(=O)N[C@@H](CCCCN)C(=O)N1CCC[C@H]1C(=O)N[C@@H](CO)C(=O)N[C@@H](CO)C(=O)NCC(=O)N[C@@H](C)C(=O)N1CCC[C@H]1C(=O)N1CCC[C@H]1C(=O)N1CCC[C@H]1C(=O)N[C@@H](CO)C(=O)O)C(C)C)[C@@H](C)CC [AT707] (Glutaryl-GTFISEYSIALEKIK([AEEA-AEEA-γGlu-C18 diacid])QQEFVEWLLAQKPSSGAPPPS-OH) | 0.28 nM |  |  |  |  |  | 
CC[C@H](C)[C@H](NC(=O)[C@H](CCCCN)NC(=O)[C@H](CCC(=O)O)NC(=O)[C@H](CC(C)C)NC(=O)C(C)(C)NC(=O)[C@@H](NC(=O)[C@H](CO)NC(=O)[C@H](Cc1ccc(O)cc1)NC(=O)[C@H](CCC(=O)O)NC(=O)[C@H](CO)NC(=O)[C@@H](NC(=O)[C@H](Cc1ccccc1)NC(=O)[C@@H](NC(=O)CNC(=O)CCCCC(=O)O)[C@@H](C)O)[C@@H](C)CC)[C@@H](C)CC)C(=O)N[C@@H](CCCCNC(=O)COCCOCCNC(=O)COCCOCCNC(=O)CC[C@H](NC(=O)CCCCCCCCCCCCCCCCC(=O)O)C(=O)O)C(=O)N[C@@H](CCC(N)=O)C(=O)N[C@@H](CCC(N)=O)C(=O)N[C@@H](CCC(=O)O)C(=O)N[C@@H](Cc1ccccc1)C(=O)N[C@H](C(=O)N[C@@H](CCC(=O)O)C(=O)N[C@@H](Cc1c[nH]c2ccccc12)C(=O)N[C@@H](CC(C)C)C(=O)N[C@@H](CC(C)C)C(=O)N[C@@H](C)C(=O)N[C@@H](CCC(N)=O)C(=O)N[C@@H](CCCCN)C(=O)N1CCC[C@H]1C(=O)N[C@@H](CO)C(=O)N[C@@H](CO)C(=O)NCC(=O)N[C@@H](C)C(=O)N1CCC[C@H]1C(=O)N1CCC[C@H]1C(=O)N1CCC[C@H]1C(=O)N[C@@H](CO)C(=O)O)C(C)C [AT753] (Adipoyl-GTFISEYSI[Aib]LEKIK([AEEA-AEEA-γGlu-C18 diacid])QQEFVEWLLAQKPSSGAPPPS-OH) | 0.23 nM |  |  |  |  |  | 
